Experimental data from US9168278B2, “Use for cannabinoid” (GW Pharma Limited, priority 2004, dated 2015).
Where two headings read alike, the source gives them in different places.

Columns and labels:
[1] = system: mouse isolated vas deferens (P2 receptor agonist β,γ-methylene-ATP); assay: Contractile responses of the vas deferens to β,γ-methylene-ATP; settings: for contractions induced by β,γ-methylene-ATP: at 1 μM
Protocol: (§1) Vasa deferentia were obtained from albino MF1 mice weighing 31 to 59 g. The tissues were mounted vertically in 4 ml organ baths. They were then subjected to electrical stimulation of progressively greater intensity followed by an equilibration procedure in which they were exposed to alternate periods of stimulation (2 min) and rest (10 min) until contractions with consistent amplitudes were obtained (Thomas et al., 2004). These contractions were monophasic and isometric and were evoked by 0.5 s trains of pulses of 110% maximal voltage (train frequency 0.1 Hz; pulse frequency 5 Hz; pulse duration 0.5 ms).
In experiments with β,γ-methylene-ATP, no electrical stimuli were applied after the equilibration procedure. Log concentration-response curves of β,γ-methylene-ATP were constructed cumulatively without washout. THCV, WIN or drug vehicle were added 30 min before the first addition of β,γ-methylene-ATP, each subsequent addition of which was made immediately after the effect of the previous dose had reached a plateau (dose cycles of 1 to 2 min).
(§2) Inhibition of the electrically-evoked twitch response of the vas deferens has been expressed in percentage terms and this has been calculated by comparing the amplitude of the twitch response after each addition of a twitch inhibitor with its amplitude immediately before the first addition of the inhibitor. Contractile responses to phenylephrine and β,γ-methylene-ATP have been expressed as increases in tension (g).

[2] = system: mouse isolated vas deferens (α1-adrenoceptor agonist phenylephrine hydrochloride); assay: Contractile responses of the vas deferens to phenylephrine; settings: for contractions induced by phenylephrine: at 1 μM
Protocol: as §1
Only one addition of phenylephrine was made to each tissue and this was carried out 30 min after the addition of THCV, WIN or drug vehicle.
as §2

[3] = system: mouse isolated vas deferens; assay: Electrically-evoked contractions of the mouse isolated vas deferens
Protocol: Experiments were also carried out with the mouse isolated vas deferens, a tissue in which cannabinoid receptor agonists such as R-(+)-WIN55212, CP55940, THC and 2-arachidonoyl ethanolamide (anandamide) can inhibit electrically-evoked contractions (Devane et al., 1992; Pertwee et al., 1995).
Cannabinoid receptor agonists are thought to inhibit the electrically evoked contractions by acting on prejunctional neuronal cannabinoid CB1 receptors to inhibit release of the contractile neurotransmitters, ATP, (acting on postjunctional P2X purinoceptors), and noradrenaline, (acting on postjunctional α1-adrenoceptors), (Trendelenberg et al., 2000).
as §1
Except in experiments with phenylephrine, all drug additions were made to the organ baths after the equilibration period and there was no washout between these additions. In most experiments there was an initial application of a potential antagonist or its vehicle. This was followed 28 min later by a 2 min period of electrical stimulation at the end of which the lowest of a series of concentrations of the twitch inhibitors, R-(+)-WIN55212, CP55940, THC, anandamide, (−)-7-hydroxy-cannabidiol-dimethylheptyl or clonidine, was applied.
After a period of rest, the tissues were electrically stimulated for 2 min and then subjected to a further addition of twitch inhibitor.
This cycle of drug addition, rest and 2 min stimulation was repeated so as to construct cumulative concentration-response curves. Only one concentration-response curve was constructed per tissue. Rest periods were 3 min for clonidine, 13 min for R-(+)-WIN55212, CP55940 and anandamide, 28 min for THC and THCV, and 58 min for (−)-7-hydroxy-cannabidiol-dimethylheptyl.
Experiments were also performed with capsaicin. This drug was added at intervals of 3 min and the tissues were not rested from electrical stimulation between these additions.
In some experiments, cumulative concentration-response curves for THCV were constructed without prior addition of any other compound, again using a cycle of drug addition, 28 min rest and 2 min stimulation.
as §2
Values for EC50, for maximal effect (Emax) and for the s.e.mean or 95% confidence limits of these values have been calculated by nonlinear regression analysis using the equation for a sigmoid concentration-response curve (GraphPad Prism).
(§3) The apparent dissociation constant (KB) values for antagonism of agonists by THCV in the vas deferens or [^35S]GTPγS binding assay have been calculated by Schild analysis from the concentration ratio, defined as the concentration of an agonist that elicits a response of a particular size in the presence of a competitive reversible antagonist at a concentration, B, divided by the concentration of the same agonist that produces an identical response in the absence of the antagonist.
Mean values have been compared using Student's two-tailed t-test for unpaired data or one-way analysis of variance (ANOVA) followed by Dunnett's test (GraphPad Prism). […]

[4] = target: T1, transfected cannabinoid CB2 receptors (CHO-hCB2 cell membranes) (Homo sapiens, UniProt P34972); assay: [35S]GTPγS binding assay, CHO-hCB2 cell membranes; format: biochemical
T1 construct: expressed in transfected cells; host or cells: CHO cells
Protocol: The conditions used for measuring agonist-stimulated [^35S]GTPγS binding to transfected cannabinoid CB2 receptors were adapted from those used by MacLennan et al. (1998) and Griffin et al. (1999).
(§4) The assays were carried out with GTPγS binding buffer (50 mM Tris-HCl; 50 mM Tris-Base; 5 mM MgCl2; 1 mM EDTA; 100 mM NaCl; 1 mM DTT; 0.1% BSA) in the presence of [^35S]GTPγS and GDP, in a final volume of 500 μl. Binding was initiated by the addition of [^35S]GTPγS to the tubes. Nonspecific binding was measured in the presence of 30 μM GTPγS.
(§5) The drugs were incubated in the assay for 60 min at 30° C. The reaction was terminated by a rapid vacuum filtration method using Tris buffer (50 mM Tris-HCl; 50 mM Tris-Base; 0.1% BSA), and the radioactivity was quantified by liquid scintillation spectrometry.
The concentrations of [^35S]GTPγS and GDP present in the assay varied depending on whether the assay was conducted with mouse brain or transfected cell membranes. […]
Net agonist-stimulated [^35S]GTPγS binding values were calculated by subtracting basal binding values (obtained in the absence of agonist) from agonist-stimulated values (obtained in the presence of agonist) as detailed elsewhere (Ross et al., 1999a). […]

[5] = target: T2, hCB2 receptors (CHO cells transfected with hCB2) (Homo sapiens, UniProt P34972); assay: Radioligand displacement assay, CHO-hCB2 cell membranes; settings: Cheng & Prusoff, read-out: mean Ki, displacement of [3H]CP55940 from specific binding sites
T2 construct: expressed in transfected cells; host or cells: CHO cells

[6] = target: T3, CB1 receptors (mouse brain membranes) (Mus musculus, UniProt P47746); assay: Radioligand displacement assay, mouse brain membranes; format: binding
T3 construct: membranes prepared from healthy brain tissue, which is densely populated with CB1 but not CB2 receptors; from tissue; host or cells: mouse brain membranes
Protocol: Experiments were performed with membranes prepared from healthy brain tissue, which is densely populated with CB1 but not CB2 receptors (reviewed in Howlett et al. 2002).
Binding was initiated by the addition of either the brain membranes (33 μg protein per tube) or the transfected hCB2 cells (25 μg protein per tube).
All assays were performed at 37° C. for 60 min before termination by addition of ice-cold wash buffer (50 mM Tris buffer, 1 mg ml^−1 bovine serum albumin, pH 7.4) and vacuum filtration using a 24-well sampling manifold and GF/B filters that had been soaked in wash buffer at 4° C. for at least 24 h.
Each reaction tube was washed six times with a 1.2 ml aliquot of wash buffer. The filters were oven-dried for 60 min and then placed in 5 ml of scintillation fluid. Radioactivity was quantified by liquid scintillation spectrometry.
Specific binding was defined as the difference between the binding that occurred in the presence and absence of 1 μM unlabelled CP55940. THCV was stored as a stock solution of 10 mM in DMSO, the vehicle concentration in all assay tubes being 0.1% DMSO.
Values are expressed as means and variability as s.e.mean or as 95% confidence limits. […] Its dissociation constant (Ki value) was calculated using the equation of Cheng & Prusoff (1973).

[7] = target: T4, cannabinoid CB1 receptors (mouse brain membranes) (Mus musculus, UniProt P47746); assay: [35S]GTPγS binding assay, mouse brain membranes; format: biochemical; settings: for Kb: Mean apparent KB, brain membranes, THCV 1000 nM
T4 construct: membranes prepared from healthy brain tissue, which is densely populated with CB1 but not CB2 receptors; from tissue; host or cells: mouse brain membranes
Protocol: as §4, §5
The concentrations of [^35S]GTPγS and GDP present in the assay varied depending on whether the assay was conducted with mouse brain or transfected cell membranes.
Additionally, mouse brain membranes were preincubated for 30 minutes at 30° C. with 0.5 U ml^−1 adenosine deaminase to remove endogenous adenosine. Agonists and antagonists were stored as a stock solution of 1 or 10 mM in DMSO, the vehicle concentration in all assay tubes being 0.11% DMSO.
as §3
Mean values have been compared using Student's two-tailed t-test for unpaired data or one-way analysis of variance (ANOVA) followed by Dunnett's test (GraphPad Prism). A P-value <0.05 was considered to be significant.

T4 sequence (P47746 whole entry): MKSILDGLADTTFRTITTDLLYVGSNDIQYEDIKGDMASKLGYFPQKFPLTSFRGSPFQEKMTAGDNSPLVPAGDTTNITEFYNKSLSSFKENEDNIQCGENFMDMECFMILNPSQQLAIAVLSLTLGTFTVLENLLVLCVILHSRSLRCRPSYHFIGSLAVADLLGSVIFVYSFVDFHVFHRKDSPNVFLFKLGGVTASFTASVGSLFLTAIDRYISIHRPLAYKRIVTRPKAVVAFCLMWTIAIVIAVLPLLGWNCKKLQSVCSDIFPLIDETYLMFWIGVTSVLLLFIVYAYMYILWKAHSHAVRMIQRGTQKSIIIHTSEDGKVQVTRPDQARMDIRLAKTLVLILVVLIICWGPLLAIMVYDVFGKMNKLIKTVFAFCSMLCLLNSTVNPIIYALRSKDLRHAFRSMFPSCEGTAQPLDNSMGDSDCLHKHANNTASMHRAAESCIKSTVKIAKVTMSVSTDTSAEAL
T3 sequence (P47746 whole entry): as above
T1 sequence (P34972 whole entry): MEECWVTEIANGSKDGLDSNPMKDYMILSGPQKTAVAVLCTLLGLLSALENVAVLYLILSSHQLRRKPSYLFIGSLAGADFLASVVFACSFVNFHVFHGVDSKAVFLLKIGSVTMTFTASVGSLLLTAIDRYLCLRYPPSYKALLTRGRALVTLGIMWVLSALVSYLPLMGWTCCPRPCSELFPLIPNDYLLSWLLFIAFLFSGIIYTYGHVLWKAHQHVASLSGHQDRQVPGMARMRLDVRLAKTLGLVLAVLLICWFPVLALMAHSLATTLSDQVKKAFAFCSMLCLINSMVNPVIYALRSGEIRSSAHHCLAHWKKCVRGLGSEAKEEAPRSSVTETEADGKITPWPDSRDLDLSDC
T2 sequence (P34972 whole entry): as above

Cc1c(C(=O)c2cccc3ccccc23)c2cccc3c2n1[C@H](CN1CCOCC1)CO3 [R-(+)-WIN55212, reference compound]
contractions induced by β,γ-methylene-ATP [1]: did not decrease | contractions induced by phenylephrine [2]: did not decrease | inhibition of electrically-evoked contractions ([3]; at 1 μM): markedly attenuated

CCCc1cc(O)c2c(c1)OC(C)(C)[C@@H]1CCC(C)=C[C@@H]21 [THCV, tetrahydrocannabivarin]
Kb [4]: 10.1 nM | effect by itself on [35S]GTPγS binding ([4]; CHO-hCB2 cell membranes, at antagonist concentrations): did not affect | contractions induced by β,γ-methylene-ATP [1]: did not induce any significant reduction | contractile responses to β,γ-methylene-ATP ([1]; at 31.6 μM): attenuated | Ki [5]: 62.8 nM | contractions induced by phenylephrine [2]: did not induce any significant reduction | contractile responses to phenylephrine hydrochloride ([2]; at 31.6 μM): attenuated | EC50 ([6]; EC50, displacement of [3H]CP55940, mouse brain membranes, n=4 to 8): 98.2 nM | EC50 ([6]; mean EC50, displacement of [3H]R-(+)-WIN55212, mouse brain membranes, n=4 to 7): 61.3 nM | EC50 ([6]; mean EC50, displacement of [3H]SR141716A, mouse brain membranes, n=4 to 6): 86.8 nM | Ki ([6]; mouse brain membranes, Cheng & Prusoff, read-out: mean Ki, displacement of [3H]CP55940 from specific binding sites): 75.4 nM | Kb ([7]; agonist CP55940, SR141716A 10 nM): 93.1 nM | Kb ([7]; agonist R-(+)-WIN55212): 85.4 nM | effect by itself on [35S]GTPγS binding ([7]; mouse brain membranes, at antagonist concentrations): did not affect | Kb ([3]; Mus musculus, twitch inhibitor 7-OH-CBD-DMH, THCV 100 nM, read-out: Mean apparent KB of THCV): > 100 nM | Kb ([3]; Mus musculus, twitch inhibitor CP55940, THCV 100 nM, read-out: Mean apparent KB of THCV): 10.3 nM | Kb ([3]; Mus musculus, twitch inhibitor R-(+)-WIN55212, THCV 10-1000 nM, Tallarida method, read-out: Mean apparent KB of THCV): 1.5 nM | Kb ([3]; Mus musculus, twitch inhibitor THC, THCV 1000 nM, read-out: Mean apparent KB of THCV): 96.7 nM | Kb ([3]; Mus musculus, twitch inhibitor anandamide, THCV 10 nM, read-out: mean apparent KB for antagonism of anandamide): 1.4 nM | Kb ([3]; Mus musculus, twitch inhibitor anandamide, THCV 100 nM, read-out: Mean apparent KB of THCV): 1.2 nM | Kb ([3]; Mus musculus, twitch inhibitor capsaicin, THCV 100 nM, read-out: Mean apparent KB of THCV): > 100 nM | Kb ([3]; Mus musculus, twitch inhibitor clonidine, THCV 100 nM, read-out: Mean apparent KB of THCV): > 100 nM | Kb ([3]; Mus musculus, twitch inhibitor methanandamide, THCV 100 nM, read-out: Mean apparent KB of THCV): 4.6 nM | EC50 ([3]; Mus musculus, compound alone, read-out: EC50, inhibition of electrically-evoked contractions): 12700 nM | inhibition of electrically-evoked contractions in presence of SR141716A ([3]; SR141716A 100 nM, n=7): not attenuated | concentration above which electrically-evoked contractions were inhibited ([3]; SR141716A-independent manner): above 3 μM | antagonism of THC-induced twitch inhibition ([3]; THCV 100 nM, n=11): Nor did 100 nM THCV antagonize | inhibition of electrically-evoked contractions ([3]; at 1 μM): no detectable inhibitory effect | inhibition of electrically-evoked contractions ([3]; at 31.6 μM): marked inhibition
